Laboratory results: US11761951B2, “Methods of selecting therapeutic molecules” (Bristol-Myers Squibb Company, priority 2015, dated 2023)

Key:
[1] = system: spontaneous neuronal activity; assay: Electrophysiologic spontaneous neuronal activity in vitro (data not shown); assay type: cell-based
AMPA receptor = AMPA receptor mediated spontaneous calcium oscillations in primary neurons; assay type: cell-based, rat; conditions: 25 μM oligomer; presence or absence of 1 mM MgCl2 representing 100% control
Method: (§1) To measure primary cortical neuron spontaneous calcium oscillation, rat primary cortical neurons were prepared from Sprague-Dawley rat embryos (E19). Cells were plated 25,000 cells/well onto 384 well poly-D-lysine coated FLIPR plates (Greiner Bio-One) in 25 μl/well Neurobasal media containing B27 supplement and 2 mM glutamine (day 1 in vitro, DIV1). Cells were grown for 11 days at 37° C. in 5% CO2 and fed with 25 μl of additional media on day 4 in vitro (“DIV04”) and day 8 in vitro (“DIV08”) for use on day 11 in vitro (“DIV11”). […] After 1 hr 20 μl of room temperature assay buffer was added and the cells were allowed to equilibrate to room temperature for 10 additional minutes and placed in the fluorescent imaging plate reader (FLIPR). Baseline signal (measurement of intracellular calcium) was read for 100 seconds (1 reading/second) before the addition of anti-sense oligomers. […] FLIPR signal was read for an additional 200 seconds (1 reading/second) after the addition of oligomer. A second 5 minute post addition plate read (300 one second points) on the FLIPR was conducted to allow for additional data capture. Raw data from the 5 minute read was exported and, using Excel, spike amplitude and frequency was calculated. Calculations were performed by measuring the average FLIPR signal over the 300 second read for control (non-treated) wells. […]

NMDA receptor = NMDA receptor mediated spontaneous calcium oscillations in primary neurons; assay type: cell-based, rat; conditions: 25 μM oligomer; presence or absence of 1 mM MgCl2 representing 100% control
Method: as §1

[2] = system: central nervous system (CNS) network activity; assay: CNS network activity in vivo (data not shown)
[3] = system: rat primary cortical neurons; assay: Primary cortical neuron spontaneous calcium oscillation (FLIPR, fluo-4 AM); assay type: cell-based; conditions: primary neuronal spontaneous calcium oscillations
Method: as §1

With “TGTgatgcaggaGTT (antisense TGTGATGCAGGAGTT; listed as DNA, chemistry not given here) [ASO-00007]” the “impact on electrophysiologic spontaneous neuronal activity in vitro” value [1] was “negatively impact”, the “inhibition of AMPA receptor mediated calcium oscillations” value (AMPA receptor) was “inhibited AMPA receptor” and the “inhibition of NMDA receptor mediated calcium oscillations” value (NMDA receptor) was “not NMDA receptor”. The “impact on central nervous system (CNS) network activity in vivo” value [2] was “negatively impact”.
In the case of `[Cl-].[Cl-].[Mg+2]` [MgCl2], the “reduction of calcium oscillations when NMDA receptor function was blocked” value ([3]; 1 mM MgCl2) was “about 80%”.
For “6-Cyano-7-nitroquinoxaline-2,3-dione [CNQX]”, the “reduction of calcium oscillations (total AMPA response in the assay)” value ([3]; CNQX 3 μM) was 20%.
